Results from article PMC11843613, “Further Optimization of the mGlu1 PAM VU6024578/BI02982816: Discovery and Characterization of VU6033685” (ACS Chemical Neuroscience, 2025).
“And” between values parts separate entries of the source, which are not always exact repeats. Equal values may be shown once.

How the values were obtained:
[1] = molecular target: T1, human mGlu1 (Homo sapiens, UniProt Q13255); assay: mGlu1 PAM calcium mobilization assay (human); format: cell-based; details: for fold increase in mGlu1 PAM potency over 5: human mGlu1 EC50 ratio versus 5
T1 construct: expressed in transfected cells; pcDNA5/TO)
Description: Molecular Pharmacology. Tetracycline-tested fetal bovine serum (FBS) was purchased from Atlanta Biologicals (Lawrenceville, GA), and all other tissue culture reagents and Fluo-4-acetoxymethylester (Fluo-4-AM) were purchased from Life Technologies (Carlsbad, CA).
Tetracycline hydrochloride (Sigma), L-glutamic acid (Tocris, Minneapolis, MN), and (S)-3,5-dihydroxyphenylglycine (DHPG) (Abcam, Cambridge, MA). EZ-Link Sulfo-NHS-SS-Biotin and NeutrAvidin agarose beads (Pierce Biotechnology, Rockford, IL).
Cell Culture and Mutagenesis. Tetracycline-inducible human mGlu 1 WT-T-RExTM-293 cells (Wu et al, Science 2014) were cultured at 37 °C in Dulbecco’s Modified Eagle Medium (DMEM) growth medium containing 10% Tet-tested FBS, 2 mM L-glutamine, 20 mM HEPES, 0.1 mM non-essential amino acids, 1 mM sodium pyruvate, antibiotic/antimycotic, 100 µg/mL hygromycin and 5 µg/mL blasticidin in the presence of 5% CO 2. […]
Calcium Mobilization Assay. To determine the potency of mGlu 1 PAMs in calcium assays, Ca flux was measured as previously described in ACS Chem. Bio. 2014, 9, 2334-2346. Briefly, the day before the assay, human mGlu1 WT-T-RExTM-293 cells were plated in black-walled, clear-bottomed, poly-D-lysine coated 96-well plates at 80,000 cells/100 µL assay medium (DMEM supplemented with 10% dialyzed FBS, 20 mM HEPES, and 1 mM sodium pyruvate) containing 50 ng/mL of tetracycline to induce mGlu1 expression. The next day, media was removed and the cells were incubated with 50 µL of 1.15 µM Fluo-4 AM dye solution prepared in assay buffer (buffer (Hank’s balanced salt solution, 20 mM HEPES, and 2.5 mM probenecid) for 45 min at 37 °C, the dye was removed and replaced with 45 µL of assay buffer. Then, calcium flux was measured using Flexstation II (Molecular Devices, Sunnyvale, CA). Compounds serially diluted […]
at half log concentrations in DMSO were further diluted in assay buffer. The compounds or DMSO vehicle were added to cells and incubated for 2.5 min and an EC20 concentration of glutamate was added and incubated for 1 min. An ECmax concentration of glutamate was also added to cells that were incubated with DMSO vehicle to accurately calculate the EC20 calcium response. Data were normalized by subtracting the basal florescent peak before EC20 agonist addition from the maximal peak elicited by EC20 agonist and PAMs. Using GraphPad Prism 5.0, the concentration response curves were generated and the potencies of the mGlu1 PAMs were determined. […]

[2] = Plasma protein binding, equilibrium dialysis (rat); format: in vitro ADME; details: pH 7.4, rat plasma, read-out: fu plasma (r)
Description: page 13: at half log concentrations in DMSO were further diluted in assay buffer. The compounds or DMSO vehicle were added to cells and incubated for 2.5 min and an EC20 concentration of glutamate was added and incubated for 1 min. An ECmax concentration of glutamate was also added to cells that were incubated with DMSO vehicle to accurately calculate the EC20 calcium response. Data were normalized by subtracting the basal florescent peak before EC20 agonist addition from the maximal peak elicited by EC20 agonist and PAMs. Using GraphPad Prism 5.0, the concentration response curves were generated and the potencies of the mGlu1 PAMs were determined. DMPK Methods Plasma protein binding: The protein binding of each compound was determined in plasma via equilibrium dialysis employing RED Plates (ThermoFisher Scientific, Rochester, NY). Plasma was added to the 96 well plate containing test compound and mixed thoroughly for a final concentration of 5 µM. Subsequently, an aliquot of the plasma-compound mixture was transferred to the cis chamber (red) of the RED plate, with an phosphate buffer (25 mM, pH 7.4) in the trans chamber. The RED plate was sealed and incubated for 4 hours at 37°C with shaking. At completion, aliquots from each chamber were diluted 1:1 with either plasma (cis) or buffer (trans) and transferred to a new 96 well plate, at which time ice-cold acetonitrile containing internal standard (50 ng/mL carbamazepine) (2 volumes) was added to extract the matrices. The plate was centrifuged (3000 rcf, 10 min) and supernatants transferred and diluted 1:1 (supernatant: water) into a new 96 well plate, which was then sealed in preparation for LC/MS/MS analysis. Each compound was assayed in triplicate within the same 96-well plate. Fraction unbound was determined using the following equation F = Concbuffer u Conc plasma Intrinsic clearance: Human or rat hepatic microsomes (0.5 mg/mL) and 1 µM test compound were incubated in 100 mM potassium phosphate pH 7.4 buffer with 3 mM MgCl2 at 37°C with constant shaking. After a 5 min preincubation, the reaction was initiated by addition of NADPH (1 mM). At selected time intervals (0, 3, 7, 15, 25, and 45 min), aliquots were taken and subsequently placed into a 96-well plate containing cold acetonitrile with internal standard (50 ng/mL carbamazepine). Plates were then centrifuged at 3000 rcf (4° C) for 10 min, and the supernatant was transferred to a separate 96-well plate and diluted 1:1 with water for LC/MS/MS analysis. The in vitro half-life (T 1/2, min, Eq. 1), intrinsic clearance (CLint, mL/min/kg, Eq. 2) and subsequent predicted hepatic clearance (CLhep, mL/min/kg, Eq. 3) was determined S13

T1 sequence (Q13255 19-1194): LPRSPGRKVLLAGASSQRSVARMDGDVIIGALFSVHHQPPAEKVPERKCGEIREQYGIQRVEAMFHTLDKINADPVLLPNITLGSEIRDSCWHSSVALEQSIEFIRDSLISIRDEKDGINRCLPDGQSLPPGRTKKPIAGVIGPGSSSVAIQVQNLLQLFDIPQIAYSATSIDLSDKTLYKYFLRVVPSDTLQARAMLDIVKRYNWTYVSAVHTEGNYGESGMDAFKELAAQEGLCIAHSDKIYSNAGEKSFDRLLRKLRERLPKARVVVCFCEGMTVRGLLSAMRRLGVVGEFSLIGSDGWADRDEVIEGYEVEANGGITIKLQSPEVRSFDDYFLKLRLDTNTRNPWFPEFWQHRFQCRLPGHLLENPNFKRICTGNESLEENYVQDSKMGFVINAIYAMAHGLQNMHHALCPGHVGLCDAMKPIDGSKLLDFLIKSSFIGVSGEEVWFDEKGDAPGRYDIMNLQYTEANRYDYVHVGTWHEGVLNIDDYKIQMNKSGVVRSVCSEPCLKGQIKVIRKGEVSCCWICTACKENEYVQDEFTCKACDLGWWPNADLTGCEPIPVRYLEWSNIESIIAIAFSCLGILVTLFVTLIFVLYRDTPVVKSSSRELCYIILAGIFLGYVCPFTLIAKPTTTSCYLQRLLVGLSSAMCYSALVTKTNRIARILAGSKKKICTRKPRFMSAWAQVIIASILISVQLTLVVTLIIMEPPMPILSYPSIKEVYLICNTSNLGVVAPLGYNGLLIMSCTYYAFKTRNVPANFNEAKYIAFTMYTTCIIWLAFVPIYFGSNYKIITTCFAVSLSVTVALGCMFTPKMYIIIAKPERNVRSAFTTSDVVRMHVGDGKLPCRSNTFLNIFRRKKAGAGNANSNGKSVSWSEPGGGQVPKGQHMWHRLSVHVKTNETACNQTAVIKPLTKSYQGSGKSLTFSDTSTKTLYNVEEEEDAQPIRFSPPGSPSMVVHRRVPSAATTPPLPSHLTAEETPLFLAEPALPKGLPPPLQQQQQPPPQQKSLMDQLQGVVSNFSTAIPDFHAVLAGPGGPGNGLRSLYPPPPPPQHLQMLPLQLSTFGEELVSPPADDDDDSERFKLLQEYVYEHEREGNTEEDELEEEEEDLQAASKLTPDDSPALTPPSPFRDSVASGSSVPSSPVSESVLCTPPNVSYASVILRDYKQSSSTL

Row | EC50 [1] | human mGlu1 Glu Max [1] [%] | fraction unbound at 4 h, 5 µM [2] | SMILES | fold increase in mGlu1 PAM potency over 5 [1] [fold]
1 | 28 nM | 72 | 0.04 | Cn1cc(-c2cc(CNC(=O)c3cc(-c4ccco4)ccc3Cl)n(C)n2)cn1 [compound 4] | 
2 | 527 nM and 551 nM | 76 | 0.095 | Cn1nc(-c2ccnn2C)cc1CNC(=O)c1cc(-n2cccn2)ccc1Cl [compound 5] | 
3 | 32 nM | 56 | 0.054 | Cc1nc2ccccc2cc1CNC(=O)c1cc(-n2cccn2)ccc1Cl [compound 6] | 
4 | 17 nM | 56 | 0.016 | Cc1nc2c(F)cccc2cc1CNC(=O)c1cc(-n2cccn2)ccc1Cl [compound 7] | ~31

Row | SMILES | EC50 [1] | human mGlu1 Glu Max [1] [%] | fraction unbound at 4 h, 5 µM [2] | fold increase in mGlu1 PAM potency over 5 [1] [fold]
5 | Cc1nc(C2CC2)ccc1CNC(=O)c1cc(-n2cccn2)ccc1Cl [compound 8] | 39 nM | 65 | 0.097 | ~14
